Assay results taken from BindingDB's records for doi:10.1016/s0968-0896(97)00172-7 (Universit&Agrave, 1997).

Key:
Adenosine receptor A2a = Adenosine receptor A2a (Rattus norvegicus, UniProt P30543)
Adenosine receptor A1 = molecular target: T1, Adenosine receptor A1 (Rattus norvegicus, UniProt P25099)
T1 sequence (P25099 whole entry): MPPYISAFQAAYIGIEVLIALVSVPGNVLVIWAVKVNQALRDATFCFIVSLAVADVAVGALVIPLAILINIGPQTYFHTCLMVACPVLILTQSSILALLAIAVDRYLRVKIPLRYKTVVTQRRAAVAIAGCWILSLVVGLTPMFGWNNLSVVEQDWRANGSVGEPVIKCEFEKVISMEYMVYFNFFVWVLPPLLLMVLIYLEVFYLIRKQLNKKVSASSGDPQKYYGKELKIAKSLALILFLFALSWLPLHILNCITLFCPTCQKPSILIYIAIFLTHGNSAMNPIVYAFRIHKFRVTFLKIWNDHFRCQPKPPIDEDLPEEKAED

Adenosine receptor A2a, sequence (P30543 whole entry): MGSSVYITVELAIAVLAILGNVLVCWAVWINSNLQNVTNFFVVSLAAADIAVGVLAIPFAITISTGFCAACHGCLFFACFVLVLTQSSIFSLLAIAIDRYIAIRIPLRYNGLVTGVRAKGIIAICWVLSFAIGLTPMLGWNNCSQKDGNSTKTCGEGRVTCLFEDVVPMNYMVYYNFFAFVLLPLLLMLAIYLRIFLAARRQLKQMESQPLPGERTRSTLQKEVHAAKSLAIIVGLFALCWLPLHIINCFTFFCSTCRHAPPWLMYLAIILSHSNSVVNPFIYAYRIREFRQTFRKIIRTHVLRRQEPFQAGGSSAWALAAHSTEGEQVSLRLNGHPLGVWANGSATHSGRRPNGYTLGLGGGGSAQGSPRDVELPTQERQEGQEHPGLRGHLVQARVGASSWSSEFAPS

Row | Ki (Adenosine receptor A2a) [nM] | Ki (Adenosine receptor A1) [nM] | SMILES
1 | 2.2 | 130 | CCCCC#Cc1nc(N)c2ncn([C@@H]3O[C@H](C(=O)NCC)[C@H](O)C3O)c2n1 (stereo partly drawn) [(2S,3R,5R)-5-[6-amino-2-(hex-1-yn-1-yl)-9H-purin-9-yl]-N-ethyl-3,4-dihydroxyoxolane-2-carboxamide]
2 | 0.5 | 4 | CCNC(=O)[C@@H]1OC(n2cnc3c(N)nc(C#CC(O)c4ccccc4)nc32)[C@H](O)[C@@H]1O (stereo partly drawn) [S-PHPNECA]
3 | 2.6 | 5.9 | CCNC(=O)[C@H]1OC(n2cnc3c(N)nc(C#CC(O)c4ccccc4)nc32)[C@@H](O)[C@H]1O (stereo partly drawn) [5-[6-Amino-2-(3-hydroxy-3-phenyl-prop-1-ynyl)-purin-9-yl]-3,4-dihydroxy-tetrahydro-furan-2-carboxylic acid ethylamide]
4 | 0.9 | 2.5 | CCNC(=O)C1OC(n2cnc3c(N)nc(C#CC(O)c4ccccc4)nc32)C(O)C1O (stereo not drawn) [R,S-PHPNECA]
